Paper PMC4009755, “High-Throughput Screen of Natural Product Libraries for Hsp90 Inhibitors” (Biology, 2014)
Like-named read-outs stand apart in the source and are kept apart here.

Tests used:
[1] = test system: Hsp90-dependent client proteins Cdk6, pAkt, Her2; Hsp90 and Hsp70 in MCF7 cells; assay: Inhibitor-dependent depletion of Hsp90-dependent clients from MCF7 cells (Western blot); assay type: cell-based, human; conditions: 24 h
Description: MCF7 cells were grown to confluence in Advanced DMEM/F12 (1:1; Gibco) supplemented with L-glutamine (2 mM), streptomycin (500 µg/mL), and penicillin (100 units/mL) and re-seeded at 0.4 × 10^6 cells/well/2 mL. Cells were incubated in a humidified atmosphere (37 °C, 5% CO2) for 24 h and treated with varying concentrations of compound or 0.5 µM geldanamycin in DMSO (0.25% DMSO final concentration), or vehicle (DMSO) for 24 h. Cells were harvested in cold PBS and lysed using MPER (Thermo Scientific/Pierce, USA) supplemented with protease and phosphatase inhibitors (Roche Applied Science, USA) according to manufacturer’s directions. Lysates were clarified at 14,000 g for 15 min at 4 °C. Protein concentrations were determined using the Pierce BCA protein assay kit per the manufacturer’s instructions. Equal amounts of protein (15 μg) were electrophoresed under reducing conditions (10% acrylamide gels), transferred to PVDF, and immunoblotted with the corresponding antibody (Anti-pAkt, -Her2, and -Cdk6 antibodies were from Cell Signaling; anti-actin was from Santa Cruz Biotechnology; and anti-Hsp90 and -Hsp70 were from Enzo Lifesciences). Membranes were incubated with an appropriate horseradish peroxidase-labeled secondary antibody, developed with a chemiluminescent substrate, and visualized.

[2] = test system: heme-regulated eIF2α kinase (HRI); assay: Hsp90-dependent maturation of the heme-regulated eIF2α kinase (HRI) in reticulocyte lysate; assay type: biochemical, rabbit; conditions: heme-deficient lysate, mobility shift on PAGE
Description: [^35S]-Labeled His-tagged HRI was translated by coupled transcription/translation for 20 min in TnT reticulocyte lysate at 30 °C. Drugs or DMSO vehicle control were then added. After an additional 10 min, the reactions (4 µL aliquots) were diluted into 28 µL volumes of heme-supplemented control lysate or heme-deficient lysate, containing the same respective drugs and DMSO vehicle control. The samples were allowed to incubate for another 40 min at 37 °C. The [^35S]-Labeled His-tagged HRI was then adsorbed from the reactions with NTA-Ni^2+ agarose resin for 1 h at 4 °C. The agarose resins were the washed four times total, in P50T, P100T 2X, and P50T again. SDS sample buffer was then added to the pellets, the samples boiled, and then separated on an 8% PAGE gel, and transferred to PVDF membrane. Membranes were dried and exposed to X-ray film for autoradiography.

[3] = test system: Plasmodium falciparum; parameters: method as in PMID 17913482; conditions: cited from earlier work
[4] = test system: MCF7 breast cancer cells; assay: Antiproliferation assay (MTS), MCF7 cells; assay type: cell-based; conditions: Homo sapiens
Description: MCF7 cells were grown in Gibco Dulbecco’s Modified Essential Medium, supplemented with non-essential amino acids, 2 mM glutamine, and 10% fetal bovine serum. Cells were seeded at 2,000 cells per well in clear 96-well plates containing 100 µL of media per well, and the cells were allowed to attach overnight. The next day, serial dilutions of compounds in DMSO or DMSO control was added to the wells. Cells were then incubated at 37 °C for 48 h. Cell viability was determined using the Promega Cell Titer 96 Aqueous One Solution Cell Proliferation Assay, which makes use of a soluble tetrazolium compound that is converted into a chromophore by living cells. After incubation with compounds, 20 µL of the assay substrate solution were added to the wells, and the plate was incubated at 37 °C for an additional hour. The plate was then read at absorbance at 490 nm using a Molecular Devices Versamax plate reader. Values are expressed as percent DMSO control. All experiments were done in triplicate.

[5] = test system: Hsp90 chaperone machinery present in rabbit reticulocyte lysate; assay: Hsp90-dependent refolding of thermally denatured luciferase in rabbit reticulocyte lysate (high-throughput screen and titration); assay type: biochemical; conditions: for Inhibition of Hsp90-dependent refolding of luciferase in the initial screen: 12.5 µg/mL (Analyticon compounds 40 µM), Microsource screen used a cut-off of 70% inhibition
Description: Rabbit reticulocyte lysate, prepared by lysing one volume of packed reticulocytes in two volumes of deionized water, followed by centrifugation for twenty minutes at 15,000 × g, was purchased from Green Hectares (Oregon, WI, USA).
Recombinant luciferase from Promega was diluted to 0.5 mg/mL in buffer consisting of 25 mM Tricine–HCl (pH 7.8), 8 mM MgSO4, 0.1 mM EDTA, and 10 mg/mL acetylated BSA. Next, the solution was adjusted to include 10% glycerol and 1% Triton X-100. Finally, the luciferase solution was heated to ~41°. Once the activity of the luciferase reached ~1% of its initial value, the mixture was placed on ice, or flash frozen in liquid nitrogen and placed at −80° for storage.
To prepare the denatured luciferase for use in re-folding assays, 125 µL of the 0.5 mg/mL mixture was added into a 10 mL mixture containing 80 mM Tris HCl, pH 7.7, 8 mM Mg(OAc)2, 300 mM KCl, 12 mM ATP, and 20 mM creatine phosphate, and 0.8 mg/mL creatine phosphokinase.
The assay buffer, which contains the luciferase substrate luciferin, consisted of 75 mM Tricine-HCl, pH 7.8, 24 mM MgSO4, 300 µM EDTA, 2 mM DTT, 313 µM D-luciferin, 640 µM coenzyme A, 660 µM ATP, 150 mM KCl, 10% (v/v) Triton X-100, 20% (v/v) glycerol, and 3.5% DMSO.
The libraries were screened for compounds that inhibited the refolding of thermally denatured luciferase using a high-throughput assay carried out with a slight modification of the method previously described. Briefly, compounds were reconstituted in 100% DMSO. Stocks of compounds purchased from Microsource, TimTec, Biofocus and BioMol were reconstituted to a concentration of 1 mg/mL. The stocks were diluted 40-fold into nano-pure water with the compounds being used at a final concentration of 12.5 µg/mL for the assay. Analyticon compounds (0.2 µmol) were reconstituted to a concentration of 4 mM, and were used at a final concentration of 40 µM in the assay. Assays were performed in 96-well microplates. To each well was added 30 µL of the water/DMSO compound solution, 15 µL of the reticulocyte lysate preparation, and 15 µL of the luciferase reagent. The plates were agitated and then allowed to incubate at 25 °C for one to three hours. After the incubation, 60 µL of assay buffer containing luciferin was added to each well. The plates were then read in a Molecular Devices LMaxII^384 microplate reader, and luminescence was measured in relative light units, with an integration time of 10 s. Compounds that inhibited luciferase refolding by approximately fifty percent or greater were then titrated into a refolding reaction containing native luciferase, to eliminate false positive hits that were direct inhibitors of luciferase as previously described. Compounds were classified as a potential Hsp90 inhibitor if they inhibited luciferase refolding by 60% or greater and there was no inhibition of the activity of native luciferase at the compound’s IC50 (concentration of the compound that inhibits luciferase refolding by 50%).
The titrations were repeated twice. For a more accurate determination of the IC50s for the compounds studied in Section 3.2.1 of this manuscript, a two-fold […] series of the compounds were used in triplicate, with the experiment being repeated three times.

[6] = MCF7 cells, 48 h, MTS assay, read-out: IC50 MCF7 proliferation

In the case of `COC1=C2C[C@@H](C)C[C@H](OC)[C@H](O)[C@@H](C)/C=C(\C)[C@H](OC(N)=O)[C@@H](OC)/C=C\C=C(/C)C(=O)NC(=CC1=O)C2=O` [geldanamycin, reference compound], the “Expression of Hsp70” value ([1]; 0.5 µM) is reported as “increase in the expression of Hsp70” and the “Inhibition of Hsp90-dependent maturation of HRI” value (shortened to “Inhibition … of HRI”) ([2]; 20 µM) is reported as “inhibited the maturation of HRI”.

For `CC(=O)O[C@@H]1C[C@@]2(C)[C@H](c3ccoc3)C[C@H]3O[C@]32[C@]2(C)C(=O)C(O)=C3C(C)(C)C(=O)C=C[C@]3(C)[C@@H]12` [Compound 50, Anthothecol], the “Activity against the growth of Plasmodium falciparum in erythrocytes” value [3] is given as “low micromolar activity”, the “Depletion of Hsp90 clients (Cdk6, pAkt, Her2)” value (“Depletion of Hsp90 clients” for short) ([1]; varying concentrations) is given as “concentration-dependent depletion” and the “Expression of Hsp70” value ([1]; varying concentrations) is given as “concentration-dependent increase”. For the same compound, the “Expression of Hsp90” value ([1]; varying concentrations) was “None of the compounds increased the expression of Hsp90”, the IC50 [4, 6] was 0.5 ± 0.06 µM and the “Inhibition … of HRI” value ([2]; 100 µM) was “inhibited the maturation of HRI”. The “Fold higher activity than gedunin” value ([5]; relative to the Hsp90 inhibitor gedunin, assay not specified) was “approximately 10 fold”.

For L-Adrenaline [Compound 99], the IC50 [5] was roughly 55 µM.

In the case of `COc1cc(/C=C/C(=O)CC(=O)/C=C/c2ccc(O)c(OC)c2)ccc1O` [Compound 40, Curcumin], the “Inhibition of Hsp90-dependent refolding of luciferase in the initial screen” value [5] is reported as “consistently identified as hits”.

In the case of `COc1c2c3c4c(c(OC)c(=O)c5c(O)cc(OC)c(c6c(OC)cc(O)c(c1=O)c63)c54)[C@@H](C(C)=O)[C@@](C)(O)C2` [Compound 116, Hypocrellin A], the IC50 [5] is reported as 5 to 10 µM.

Work on `C=C1C(=O)O[C@@H]2C[C@@H](C)[C@@H]3C=CC(=O)[C@@]3(C)[C@@H](O)[C@H]12` [Compound 9, Helenalin] yielded an IC50 [5] of roughly 80 µM.

In the case of `CC(=O)c1c(O)c(C)c(O)c(Cc2c(O)c3c(c(C(=O)/C=C/c4ccccc4)c2O)OC(C)(C)C=C3)c1O` [Compound 47, Rottlerin], the “Depletion of Hsp90 clients” value ([1]; varying concentrations) is reported as “concentration-dependent depletion”, the “Expression of Hsp70” value ([1]; varying concentrations) is reported as “concentration-dependent increase” and the “Expression of Hsp90” value ([1]; varying concentrations) is reported as “None of the compounds increased the expression of Hsp90”. The IC50 [4, 6] was 7 ± 3 µM, the “Inhibition … of HRI” value ([2]; 100 µM) was “inhibited the maturation of HRI” and the IC50 [5] was roughly 60 µM. The IC50 ([5]; read-out: IC50 luciferase refolding) was 63 ± 5 µM.

`COC(=O)[C@]1(C)CC[C@]2(C)CC[C@]3(C)C4=CC=C5C(=CC(=O)C(O)=C5C)[C@]4(C)CC[C@@]3(C)[C@@H]2C1` [Compound 49, Celastrol methyl ester] gave an IC50 [5] of roughly 2 µM.

With `CC(C)=CCC[C@]1(C)C=Cc2c(O)c3c(c(CC=C(C)C)c2O1)O[C@]12C(=C[C@@H]4C[C@H]1C(C)(C)O[C@@]2(C/C=C(/C)C(=O)O)C4=O)C3=O` [Compound 35, Gambogic acid] the “Inhibition of Hsp90-dependent refolding of luciferase in the initial screen” value [5] was “consistently identified as hits”.

With `O=c1cc(-c2ccc(O)c(O)c2)oc2cc(O)cc(O)c12` [Compound 31, Luteolin] the “Inhibition of Hsp90-dependent refolding of luciferase in the initial screen” value [5] was “no inhibitory activity in one of the screens”.

With `CO[C@@H]1[C@@H](OC(N)=O)[C@@H](O)[C@H](Oc2ccc3c(O)c(NC(=O)c4ccc(O)c(CC=C(C)C)c4)c(=O)oc3c2C)OC1(C)C` [novobiocin, reference compound] the “Inhibition … of HRI” value [2] was “inhibited the maturation of HRI”.

In the case of `[Na+].[Na+].[O]=[Mo](=[O])([O-])[O-]` [molybdate, sodium molybdate, reference compound], the “Inhibition … of HRI” value [2] is reported as “inhibited the maturation of HRI”.

With `CC1=CC(=O)c2c(O)cccc2C1=O` [Compound 84, Plumbagin] the “Inhibition of Hsp90-dependent refolding of luciferase in the initial screen” value [5] was “consistently identified as hits”.

Compound Tyrothricin [Compound 74] has an IC50 [5] of roughly 5 µM.

In the case of `COc1cc(/C=C/C(=O)N2CCC=CC2=O)cc(OC)c1OC` [Piplartine], the “Depletion of Hsp90 clients” value ([1]; varying concentrations) is reported as “concentration-dependent depletion”, the “Expression of Hsp70” value ([1]; varying concentrations) is reported as “no effect” and the “Expression of Hsp90” value ([1]; varying concentrations) is reported as “None of the compounds increased the expression of Hsp90”. The IC50 ([4]; MCF7, 48 h, read-out: IC50 MCF7 proliferation (µM)) was 10 ± 3 µM and the “Inhibition … of HRI” value ([2]; 100 µM) was “inhibited the maturation of HRI”.

With `C=C1CCC(O)CC1=CC=C1CCCC2(C)C1CCC2C(C)CCCC(C)C` (centres unmarked) [Compound 98] the IC50 [5] was roughly 60 µM.

With `C=C(C)[C@@H](CC=C(C)C)C[C@@]12C[C@@H](CC=C(C)C)C(C)(C)[C@@](CC=C(C)C)(C(=O)C(C(=O)c3ccc(O)c(O)c3)=C1O)C2=O` [Garcinol] the “Depletion of Hsp90 clients” value ([1]; varying concentrations) was “concentration-dependent depletion”, the “Expression of Hsp70” value ([1]; varying concentrations) was “no effect” and the “Expression of Hsp90” value ([1]; varying concentrations) was “None of the compounds increased the expression of Hsp90”. For the same compound, the IC50 [4, 6] was 4 ± 0.6 µM and the “Inhibition … of HRI” value ([2]; 100 µM) was “inhibited the maturation of HRI”.
